Tested on: hippocampal cells
Test: Whole-cell patch-clamp recordings of synaptic charge
Assay type: cell-based, rat
Settings: for Effect on synaptic charge: perfusion of synthetic rat VGF peptide, 0.1 μM
Experimental: To examine the relationship between synaptic response and gene expression, an individual cell's electrophysiological response to BDNF was examined in conjunction with single-cell RT-PCR for Arc. […] Whole-cell patch-clamp recordings from 16 cells verified 0.8- to 4.5-fold increase in synaptic charge following 20 minutes BDNF exposure. […] A group of BDNF-treated cells presenting a minimal synaptic response was apparent. This group was categorized as non-responders (FIG. 1B) and the other cells showing a greater response to BDNF were classified as responders. To determine whether cellular basal activity influences the response to BDNF, the average synaptic charge pre-BDNF of the responders (36±13.1 pC, n=7) versus the non-responders (23.2±6.6 pC, n=9) was compared.
To explore a functional role for VGF in neuromodulation, whole-cell patch-clamp recordings on hippocampal cells were performed in the presence of synthetic VGF peptides. The electrophysiological profile of VGF peptides on hippocampal cells was similar to that observed for BDNF (Levine et al. (1996) supra). […] Enhanced synaptic activity was maintained for up to 25 minutes in the continued presence of Thr-Leu-Gln-Pro-62 (SEQ ID NO:14). […] The effects of both Ala-Gln-Glu-Glu-30 (SEQ ID NO:16) and Thr-Leu-Gln-Pro-62 (SEQ ID NO:14) peptides were dose-dependent, saturating at 0.1 μM.
Whole-cell patch clamp recordings were performed after 10-14 days in culture. Currents were recorded with an Axoclamp 200 amplifier, digitized at 2.5 kHz with an INDEC IDA 15125 interface, filtered at 5 kHz and stored. Recording parameters and stimulus protocols were controlled by custom software written with Borland C++ that utilizes device driver libraries supplied by INDEC. Data analysis programs were written with Microsoft Visual Basic. The. external bath solution for voltage clamp recordings was (in mM) 1.67 CaCl2, 1 MgCl2, 5.36 KCl, 137 NaCl, 17 glucose, 10 HEPES and 20 sucrose (neuron recording solution, NRS). The pipette solution contained (in mM) 105 Cs-methanesulfonate, 17.5 CsCl, 10 HEPES, 0.2 EGTA, 8 NaCl, 2 Mg-ATP, 2 Na-ATP, 0.3 Na-GTP, 20 phosphocreatinine, and 50 U/ml creatinine phosphokinase. All recordings were made at room temperature. The typical range of pipette resistance was 3-5 MΩ. Cell capacitance was 10-20 pF and access resistance was 7-20 MΩ. Vacuum perfusion system contained BDNF (50 ng/ml, Preprotech, Princeton, N.J.), NRS as a control or VGF peptides (0.1 μM=740 ng/ml). Three synthetic rat VGF peptides were used: Leu-Glu-Gly-Ser-28 (SEQ ID NO:15) amino acids 285-312 (amidated), Thr-Leu-Gln-Pro-62 (SEQ ID NO:14) amino acids 556-617 and Ala-Gln-Glu-Glu-30 (SEQ ID NO:16) amino acids 588-617. Each data point represents a cell from a separate dish and at least three different platings were used for each condition.
Data were analyzed by integrating the synaptic currents for each sweep (synaptic charge). The charge measurements for all sweeps in a 1 min period were averaged (binned). Baseline is considered the average synaptic charge during the 2 min period (−2 to 0 min) in NRS immediately prior to BDNF or VGF application. Fold increases were then determined by dividing the synaptic charge during BDNF or VGF exposure by the baseline. Recordings were rejected if either the 0-5 min binned time period or 5-10 min binned time period after switching during BDNF or VGF exposure was 2×SEM below baseline, indicating “run down”.

## Ala-Gln-Glu-Glu-30: synthetic rat VGF peptide, amino acids 588-617, C-terminal region (AQEE)
  Saturating concentration of dose-dependent effect on synaptic charge: 0.1 µM

## Leu-Glu-Gly-Ser-28: synthetic rat VGF peptide, amino acids 285-312 (amidated), N-terminal region
  Effect on synaptic charge: no change in synaptic charge

## Thr-Leu-Gln-Pro-62: synthetic rat VGF peptide, amino acids 556-617, C-terminal portion of VGF (TLQP)
  Saturating concentration of dose-dependent effect on synaptic charge: 0.1 µM
  Effect on synaptic charge: Increased synaptic charge
After start of peptide perfusion
  Time to increased synaptic charge: ≤ 5 min
Continued presence of peptide
  Time enhanced synaptic activity was maintained: up to 25 minutes
